Numbered stars: 1 amine (or outer) side, 2 acyl side, 3 side chain; on linkers, the order of the positions; unused ones are H or OH. Bridge positions count the residues as written; N and C are the ends. Square brackets hold non-standard residues; d marks the D form. Peptide text beside a SMILES is read from it. Trp(βS-Me,7-OMe) = COc1cccc2c([C@H](C)[C@H](N)C(=O)O)c[nH]c12; cBu(1-CO,cis-3-CH2NH) = O=C([C@H]1C[C@@H](CN[*:1])C1)[*:2]; Phe(4-CH2COOH) = N[C@@H](Cc1ccc(CC(=O)O)cc1)C(=O)O; Trp(7-CN) = N#Cc1cccc2c(C[C@H](N)C(=O)O)c[nH]c12; Trp(7-Cl) = N[C@@H](Cc1c[nH]c2c(Cl)cccc12)C(=O)O; X27 = O=C(O)c1ccc(C[C@H](N[*:1])C(=O)[*:2])cc1F; Phe(4-CONH2) = NC(=O)c1ccc(C[C@H](N)C(=O)O)cc1; Phe(4-COOH) = N[C@@H](Cc1ccc(C(=O)O)cc1)C(=O)O; X30 = O=C([C@@H](N[*:1])[C@H](O)c1ccncc1)[*:2]; Trp(7-aza) = N[C@@H](Cc1c[nH]c2ncccc12)C(=O)O; Pip(5R-OH) = O=C(O)[C@@H]1CC[C@@H](O)CN1; X1 = O=C([C@@H]1CC[C@H](N[*:1])C1)[*:2]; Pip(4-aza) = O=C(O)[C@@H]1CNCCN1; 4Pal = N[C@@H](Cc1ccncc1)C(=O)O; NMeE = CN[C@@H](CCC(=O)O)C(=O)O; dHyp = O=C(O)[C@H]1C[C@H](O)CN1; X7 = CC[C@@H](C(=O)[*:1])[*:2]; Ahp(2) = CCCCC[C@H](N)C(=O)O; Pip = O=C(O)[C@@H]1CCCCN1; αMeS = C[C@](N)(CO)C(=O)O; Nle = CCCC[C@H](N)C(=O)O; Sar = CNCC(=O)O
Biological target: T1, TNFα-induced NF-κB signal transduction pathway (TNFR1 signaling) in THP-1 cells (Homo sapiens, UniProt P19438)
T1 sequence (P19438 30-455): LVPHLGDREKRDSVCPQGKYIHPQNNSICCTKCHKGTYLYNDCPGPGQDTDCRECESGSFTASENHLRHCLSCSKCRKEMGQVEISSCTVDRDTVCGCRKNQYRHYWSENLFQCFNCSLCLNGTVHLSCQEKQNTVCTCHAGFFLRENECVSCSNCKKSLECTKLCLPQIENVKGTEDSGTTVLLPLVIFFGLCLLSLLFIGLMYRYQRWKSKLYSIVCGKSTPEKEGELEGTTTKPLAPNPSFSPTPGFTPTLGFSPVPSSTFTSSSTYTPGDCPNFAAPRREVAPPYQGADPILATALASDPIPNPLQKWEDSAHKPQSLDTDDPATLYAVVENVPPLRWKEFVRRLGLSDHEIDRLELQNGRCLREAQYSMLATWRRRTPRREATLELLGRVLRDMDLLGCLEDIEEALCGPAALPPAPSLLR
Experiment: THP-1 Lucia NF-κB reporter cell assay, inhibition of TNFα-induced NF-κB signaling
Type: cell-based
Settings: THP-1 NF-κB Lucia reporter cells, 10 ng/mL TNFα, 16-18 h, secreted luciferase; read-out: THP-1 IC50
In short: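 Macrocyclic peptides were preincubated 1 h at 37 °C with THP-1 NF-κB-Lucia reporter cells (20,000 cells/well) in antibiotic-free RPMI 1640/10% FBS, then stimulated with 10 ng/mL human TNFα overnight (16-18 h). Secreted luciferase in supernatant was read by luminescence; IC50 from 4-parameter logistic fits.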

Row | SMILES | IC50 [nM]
1 | CCCCC[C@@H]1NC(=O)[C@@H]2CC[C@@H](C2)NC(=O)[C@H]([C@@H](C)c2c[nH]c3c(OC)cccc23)NC(=O)CN(C)C(=O)[C@H](Cc2ccc(C(N)=O)cc2)NC(=O)[C@H](Cc2ccc(C(N)=O)cc2)NC(=O)[C@](C)(CO)NC(=O)[C@H](Cc2c[nH]c3c(C#N)cccc23)NC(=O)[C@H](Cc2ccc(C(=O)O)cc2)NC(=O)[C@H](CC(N)=O)NC(=O)[C@H]2C[C@H](O)CN2C(=O)[C@H](Cc2c[nH]c3ccccc23)NC(=O)[C@H](CO)NC(=O)[C@H]([C@H](O)c2ccncc2)NC1=O [SEQ ID NO. 16] (cyclo([Ahp(2)][X30]SW[dHyp]N[Phe(4-COOH)][Trp(7-CN)][αMeS][Phe(4-CONH2)][Phe(4-CONH2)][Sar][Trp(βS-Me,7-OMe)][X1])) | 0.6
2 | CCCC[C@@H]1NC(=O)CSC[C@@H](C(N)=O)NC(=O)[C@H]([C@@H](C)c2c[nH]c3c(OC)cccc23)NC(=O)CN(C)C(=O)[C@H](Cc2ccc(O)cc2)NC(=O)[C@H](Cc2ccc(C(=O)O)cc2)NC(=O)[C@](C)(CO)NC(=O)[C@H](Cc2c[nH]c3c(Cl)cccc23)NC(=O)[C@H](Cc2ccc(CC(=O)O)cc2)NC(=O)[C@H](CC(N)=O)NC(=O)[C@H](CCC(=O)O)N(C)C(=O)[C@H](Cc2c[nH]c3ccccc23)NC(=O)[C@@H]2CCCCN2C(=O)[C@H](Cc2ccncc2)NC1=O [SEQ ID NO. 212] ({CH2CO}-[Nle][4Pal][Pip]W[NMeE]N[Phe(4-CH2COOH)][Trp(7-Cl)][αMeS][Phe(4-COOH)]Y[Sar][Trp(βS-Me,7-OMe)]C-NH2; thioether N-14) | 2.8
3 | CCCC[C@@H]1NC(=O)[C@H](CC)SC[C@@H](C(N)=O)NC(=O)[C@H]([C@@H](C)c2c[nH]c3c(OC)cccc23)NC(=O)CN(C)C(=O)[C@H](Cc2ccc(O)cc2)NC(=O)[C@H](Cc2ccc(C(N)=O)cc2)NC(=O)[C@](C)(CO)NC(=O)[C@H](Cc2c[nH]c3c(Cl)cccc23)NC(=O)[C@H](Cc2ccc(C(=O)O)cc2)NC(=O)[C@H](CC(N)=O)NC(=O)[C@H](CCC(=O)O)N(C)C(=O)[C@H](Cc2c[nH]c3ncccc23)NC(=O)[C@@H]2CC[C@@H](O)CN2C(=O)[C@H](Cc2ccncc2)NC1=O [SEQ ID NO. 168] ([Nle][4Pal][Pip(5R-OH)][Trp(7-aza)][NMeE]N[Phe(4-COOH)][Trp(7-Cl)][αMeS][Phe(4-CONH2)]Y[Sar][Trp(βS-Me,7-OMe)]C-NH2; linker N-14 via X7) | 1.2
4 | CCCC[C@@H]1NC(=O)[C@H]2C[C@@H](CNC(=O)[C@H]([C@@H](C)c3c[nH]c4c(OC)cccc34)NC(=O)CN(C)C(=O)[C@H](Cc3ccc(O)cc3)NC(=O)[C@H](Cc3ccc(C(=O)O)cc3)NC(=O)[C@](C)(CO)NC(=O)[C@H](Cc3c[nH]c4c(Cl)cccc34)NC(=O)[C@H](Cc3ccncc3)NC(=O)[C@H](CC(N)=O)NC(=O)[C@H](CCC(=O)O)N(C)C(=O)[C@H](Cc3c[nH]c4ccccc34)NC(=O)[C@@H]3CNCCN3C(=O)[C@H](Cc3ccncc3)NC1=O)C2 [SEQ ID NO. 268] (cyclo([4Pal][Trp(7-Cl)][αMeS][Phe(4-COOH)]Y[Sar][Trp(βS-Me,7-OMe)][cBu(1-CO,cis-3-CH2NH)][Nle][4Pal][Pip(4-aza)]W[NMeE]N)) | 2
5 | CCCC[C@@H]1NC(=O)[C@@H]2CC[C@@H](C2)NC(=O)[C@H]([C@@H](C)c2c[nH]c3c(OC)cccc23)NC(=O)CN(C)C(=O)[C@H](Cc2ccc(C(=O)O)cc2)NC(=O)[C@H](Cc2ccc(C(N)=O)cc2)NC(=O)[C@](C)(CO)NC(=O)[C@H](Cc2c[nH]c3c(Cl)cccc23)NC(=O)[C@H](Cc2ccc(C(=O)O)cc2)NC(=O)[C@H](CC(N)=O)NC(=O)[C@H]2C[C@H](O)CN2C(=O)[C@H](Cc2c[nH]c3ccccc23)NC(=O)[C@@H]2CC[C@@H](O)CN2C(=O)[C@H](Cc2ccncc2)NC1=O [SEQ ID NO. 247] (cyclo([4Pal][Pip(5R-OH)]W[dHyp]N[Phe(4-COOH)][Trp(7-Cl)][αMeS][Phe(4-CONH2)][Phe(4-COOH)][Sar][Trp(βS-Me,7-OMe)][X1][Nle])) | 0.5
6 | CCCC[C@@H]1NC(=O)[C@@H]2CC[C@@H](C2)NC(=O)[C@H]([C@@H](C)c2c[nH]c3c(OC)cccc23)NC(=O)CN(C)C(=O)[C@H](Cc2ccc(C(=O)O)cc2)NC(=O)[C@H](Cc2ccc(C(N)=O)cc2)NC(=O)[C@](C)(CO)NC(=O)[C@H](Cc2c[nH]c3c(C#N)cccc23)NC(=O)[C@H](Cc2ccc(C(=O)O)c(F)c2)NC(=O)[C@H](CC(N)=O)NC(=O)[C@H]2C[C@H](O)CN2C(=O)[C@H](Cc2c[nH]c3ncccc23)NC(=O)[C@@H]2CC[C@@H](O)CN2C(=O)[C@H](Cc2ccncc2)NC1=O [SEQ ID NO. 8] (cyclo([4Pal][Pip(5R-OH)][Trp(7-aza)][dHyp]N[X27][Trp(7-CN)][αMeS][Phe(4-CONH2)][Phe(4-COOH)][Sar][Trp(βS-Me,7-OMe)][X1][Nle])) | 0.7

From patent publication US20240287138A1, “CYCLIC PEPTIDES FOR INHIBITING TNF RECEPTOR 1 ACTIVITY” (Merck Sharp & Dohme LLC, priority 2023, published 2024)
